From patent publication US12441710B2, “Substituted piperidino compounds and related methods of treatment” (Alkermes, Inc., priority 2020, dated 2025) come the findings set out here.

Assay type in all cases: in vitro ADME
One data set relates to MDR1. As to the kind of experiment: MDCK-MDR1 permeability assay. Particulars: dog, 3 μM test compound; for efflux ratio at 2 h, 3 μM: Papp (B→A) divided by Papp (A→B), read-out: Efflux ratio (ER); for Papp A→B at 2 h, 3 μM: apical to basolateral, 2 hours at 37 degrees C. The procedure: The bidirectional permeability (Apical to Basal and Basal to Apical directions) of test compounds in MDCK-MDR1 cells were evaluated using MDCK-MDR1 cells seeded in Solvo PreadyPort™ MDCK 96-well plate. Once the plate was received from ReadyCell (Barcelona, Spain), it was treated as per PreadyPort™ user's manual.
For the Apical to Basolateral (A→B) permeability, 80 μL of test compound (3 μM) co-dosed with LY (Lucifer Yellow) (100 μM) in HBSS (Hank's Balanced Salt Solution) assay buffer was added to the donor side (A) while 250 μL of HBSS buffer was added to the receiver side (B). For the Basolateral to Apical (B→A) permeability, 255 μL of test compound (3 μM) in HBSS assay buffer was added to the donor side (B) while 75 μL of HBSS buffer containing LY (100 μM) was added to the receiver side (A).
The plate was placed in an incubator set at 37 degrees C. After 10 minutes of pre-warming, 5 μL aliquot was taken from donor compartment and set aside as the dosing solution. The MDCK-MDR1 incubation plate was placed back into the incubator for 2 hours of incubation at 37 degrees C. After 2 hours of incubation, 25 μL and 5 μL aliquots were removed from the receiver and donor sides, respectively. To the 5 μL aliquots taken from the donor sides (before and after a 2-hour incubation) were diluted with 20 μL of the HBSS buffer. All samples were mixed with 150 μL with acetonitrile containing internal standard (IS) and 200 μL water, and analyzed by LC-MS/MS.
The apparent permeability (Papp) was calculated using the following formula: Papp=dQ/dt×1/A×C0 where: • dQ/dt: amount of translocated material over incubation time (nmol/s) • A: area of insert (0.14 cm^2 for PreadyPort™ MDR1-96) • C0: initial concentration of product applied in apical (A→B) or basal (B→A) compartment (nmol/mL).
The efflux ratio (ER) was measured by dividing the Papp (basolateral to apical direction) by Papp (apical to basolateral direction). It is a general measure of the involvement of active processes. An ER >2 is considered positive for active transport.
The data reported in Table 3 were obtained according to the MDCK-MDR1 permeability assay described above.

A short description of data set [1]: Hepatocytes stability assay (human hepatocytes). The settings on record: both sexes, cryopreserved hepatocytes, 1 μM test compound, 1×10^6 cell/mL, read-out: CLint (μL/min/million cells). The procedure: (§1) In vitro metabolic stability was assessed using cryopreserved hepatocytes from male Sprague Dawley rats and a pool of 50 mixed gender humans (BioIVT, Baltimore, MD). The incubation mixtures were prepared by mixing 250 μL of pre-warmed KHB (Krebs-Henseleit buffer) containing 2×10^6 cell/mL of hepatocytes with 250 μL of pre-warmed KHB buffer containing 2 μM of test compounds in a 48-well plate, giving a final concentration of 1 μM test compound (0.1% DMSO) and 1×10^6 cell/mL of hepatocytes. The reaction mixture was incubated at 37 degrees C. A 50 μL aliquot of incubation mixture was taken at time points (0, 15, 30, 60, 120 and 240 minutes) and transferred into a 96-well plate containing 300 μL ice-cold acetonitrile (containing 30 ng/mL of labetalol and 10 ng/mL of Naltrexone-d3 as internal standards) and immediately placed in ice to terminate the reaction. Samples were centrifuged, and supernatants were transferred into 96-well plates for liquid chromatography with tandem mass spectrometry (LC-MS/MS) analysis to monitor the depletion of the test compound. Data was calculated as percent remaining by assuming zero-minute time point peak area ratio (analyte/IS) as 100% and dividing remaining time point peak area ratios by zero-minute time point peak area ratio. Data were fitted to a first-order decay model to determine half-life. From a plot of log (ln) peak area against time, the slope of the line was determined. Subsequently, half-life (T1/2) and intrinsic clearance (CLint) were calculated using the equations below: • Elimination rate constant (k)=(−slope) • Half-life (T1/2) min=0.693/k • Intrinsic Clearance (CLint) (mL/min/million cells)=(V×0.693)/T1/2 • V=incubation volume mL/number of cells The in vitro T1/2 was converted to in vitro intrinsic clearance (CLint,hep) in units of mL/min/kg using the formula shown below: The in vitro intrinsic clearance (CLint,hep) was scaled to in vivo hepatic clearance (CL,hep) using the following equation which was adapted from a well-stirred model. [formula] where Q is the liver blood flow and fu is the fraction unbound (assumed to be unity in this case). All parameters used in the calculation are shown below (Table 4). The extraction ratio (ER) was calculated by dividing the hepatic clearance of a compound to the liver blood flow. The data reported in Table 5 were obtained according to the human hepatocytes stability assay described above.

Another data set relates to human hepatocytes. Briefly: Hepatocytes stability assay (human hepatocytes). Particulars: hepatic clearance divided by liver blood flow, fu assumed unity. The procedure:
as §1

As a reminder, the Papp A→B is the apparent permeability from the apical to the basolateral side of a cell layer. High values mean fast passage, low ones slow passage. For the compound `Cc1cccc(C2CCC(OCC3CN(c4ccccn4)CC[C@@H]3NS(C)(=O)=O)CC2)c1` (stereo partly drawn) [Compound 16], in the data set with MDR1, the efflux ratio at 2 h, 3 μM was greater than 7.9 and the Papp A→B at 2 h, 3 μM is less than 0.9 ×10⁻⁶ cm/s. Moreover, the hepatocyte CLint at 1 μM in data set [1] was 43 µL/min/1e6 cells. Also, in the data set with human hepatocytes, the “Extraction Ratio (ER)” value is reported as 0.87.
The corresponding values for `CS(=O)(=O)N[C@H]1CCN(c2ccccn2)CC1COC1CCC(c2cccc(C#N)c2)CC1` (stereo partly drawn) [Compound 35] are 12, 1.3 ×10⁻⁶ cm/s, 102 µL/min/1e6 cells and 0.94.
`CS(=O)(=O)N[C@H]1CCN(c2ccccn2)CC1COC1CCC(c2ccc(F)cc2)CC1` (stereo partly drawn) [Compound 7]: in the data set with MDR1, the efflux ratio at 2 h, 3 μM was greater than 4.3 and the Papp A→B at 2 h, 3 μM is less than 1.2 ×10⁻⁶ cm/s. Moreover, the hepatocyte CLint at 1 μM in data set [1] came to 39 µL/min/1e6 cells. In addition, the “Extraction Ratio (ER)” value with human hepatocytes is 0.85.
The corresponding values for `CS(=O)(=O)N[C@H]1CCN(Cc2ccncc2)CC1COC1CCC(c2ccccc2)CC1` (stereo partly drawn) [Compound 41] are 16, 1.7 ×10⁻⁶ cm/s, 107 µL/min/1e6 cells and 0.94.
For `CS(=O)(=O)N[C@H]1CCN(Cc2ccccn2)CC1COC1CCC(c2ccccc2)CC1` (stereo partly drawn) [Compound 39], in that order: 15, 1.4 ×10⁻⁶ cm/s, 59 µL/min/1e6 cells and 0.90.
The corresponding values for `CS(=O)(=O)N[C@H]1CCN(c2ncccc2O)CC1COC1CCC(c2ccccc2)CC1` (stereo partly drawn) [Compound 27] are 3, 2.7 ×10⁻⁶ cm/s, 75 µL/min/1e6 cells and 0.92.
In the case of `CS(=O)(=O)N[C@H]1CCN(c2cccc3ccnn23)CC1COC1CCC(c2ccccc2)CC1` (stereo partly drawn) [Compound 42], in the data set with MDR1, the efflux ratio at 2 h, 3 μM worked out at 2.9 and the Papp A→B at 2 h, 3 μM was 0.86 ×10⁻⁶ cm/s. For the same compound, the hepatocyte CLint at 1 μM in data set [1] turned out to be 100 µL/min/1e6 cells. Also, the “Extraction Ratio (ER)” value in the data set on human hepatocytes was 0.94.
As for `CS(=O)(=O)N[C@H]1CCN(c2ccccn2)CC1COC1CCC(c2cncnc2)CC1` (stereo partly drawn) [Compound 12], in the data set on MDR1, the efflux ratio at 2 h, 3 μM amounted to 33 and the Papp A→B at 2 h, 3 μM stood at 1 ×10⁻⁶ cm/s. Besides, the hepatocyte CLint at 1 μM in data set [1] stood at 35 µL/min/1e6 cells. For the same compound, the “Extraction Ratio (ER)” value with human hepatocytes is on record as 0.84.
In the case of `CS(=O)(=O)N[C@H]1CCN(c2cccc3ncnn23)CC1COC1CCC(c2ccccc2)CC1` (stereo partly drawn) [Compound 43], in the data set with MDR1, the efflux ratio at 2 h, 3 μM came out at 8.8 and the Papp A→B at 2 h, 3 μM was 2.4 ×10⁻⁶ cm/s. Moreover, in data set [1], the hepatocyte CLint at 1 μM was 102 µL/min/1e6 cells. Further, the “Extraction Ratio (ER)” value with human hepatocytes was determined as 0.94.
The corresponding values for `C[C@@]1(COC2CCC(c3ccccc3)CC2)CN(c2ccccn2)CC[C@@H]1NS(C)(=O)=O` (stereo partly drawn) [Compound 29] are greater than 17, less than 0.42 ×10⁻⁶ cm/s, 30 µL/min/1e6 cells and 0.82.
The corresponding values for `Cc1ccccc1C1CCC(OCC2CN(c3ccccn3)CC[C@@H]2NS(C)(=O)=O)CC1` (stereo partly drawn) [Compound 15] are greater than 6.9, less than 0.33 ×10⁻⁶ cm/s, 64 µL/min/1e6 cells and 0.91.
For `CS(=O)(=O)N[C@H]1CCN(Cc2cccnc2)CC1COC1CCC(c2ccccc2)CC1` (stereo partly drawn) [Compound 40], in that order: 8.2, 1.3 ×10⁻⁶ cm/s, 86 µL/min/1e6 cells and 0.93.
Consider `CS(=O)(=O)N[C@H]1CCN(c2ccccn2)CC1COC1CCC(c2ccccc2)CC1` (stereo partly drawn) [Compound 10], for which, in the data set on MDR1, the efflux ratio at 2 h, 3 μM was 1.4 and the Papp A→B at 2 h, 3 μM came to 5.6 ×10⁻⁶ cm/s. For the same compound, in data set [1], the hepatocyte CLint at 1 μM is 73 µL/min/1e6 cells. The “Extraction Ratio (ER)” value with human hepatocytes was found to be 0.92.
With `CS(=O)(=O)N[C@H]1CCN(c2cc(F)ccn2)CC1COC1CCC(c2ccccc2)CC1` (stereo partly drawn) [Compound 25], in the data set on MDR1, the efflux ratio at 2 h, 3 μM was greater than 58 and the Papp A→B at 2 h, 3 μM is less than 0.41 ×10⁻⁶ cm/s. Further, the hepatocyte CLint at 1 μM in data set [1] turned out to be 73 µL/min/1e6 cells. Also, the “Extraction Ratio (ER)” value with human hepatocytes is reported as 0.92.
As for `CS(=O)(=O)N[C@H]1CCN(c2ccccn2)CC1COC1CCC(c2ccccc2F)CC1` (stereo partly drawn) [Compound 5], in the data set on MDR1, the efflux ratio at 2 h, 3 μM is greater than 7.2 and the Papp A→B at 2 h, 3 μM is less than 0.9 ×10⁻⁶ cm/s. Moreover, the hepatocyte CLint at 1 μM in data set [1] was determined as 49 µL/min/1e6 cells. In addition, in the data set with human hepatocytes, the “Extraction Ratio (ER)” value worked out at 0.88.
Take `CS(=O)(=O)N[C@H]1CCN(c2nccc3ncnn23)CC1COC1CCC(c2ccccc2)CC1` (stereo partly drawn) [Compound 44]: in the data set on MDR1, the efflux ratio at 2 h, 3 μM was 6.4 and the Papp A→B at 2 h, 3 μM is 3 ×10⁻⁶ cm/s. In addition, in data set [1], the hepatocyte CLint at 1 μM stood at 133 µL/min/1e6 cells. Also, the “Extraction Ratio (ER)” value with human hepatocytes is 0.95.
Consider `CS(=O)(=O)N[C@H]1CCN(c2ccncn2)CC1COC1CCC(c2ccccc2)CC1` (stereo partly drawn) [Compound 20], for which, in the data set on MDR1, the efflux ratio at 2 h, 3 μM is 17 and the Papp A→B at 2 h, 3 μM was determined as 1.1 ×10⁻⁶ cm/s. Besides, in data set [1], the hepatocyte CLint at 1 μM amounted to 60 µL/min/1e6 cells. Besides, the “Extraction Ratio (ER)” value with human hepatocytes came to 0.90.
The corresponding values for `CS(=O)(=O)N[C@H]1CCN(c2ccc(F)cn2)CC1COC1CCC(c2ccccc2)CC1` (stereo partly drawn) [Compound 24] are 30, 0.28 ×10⁻⁶ cm/s, 42 µL/min/1e6 cells and 0.86.
With `CS(=O)(=O)N[C@H]1CCN(c2cnccn2)CC1COC1CCC(c2ccccc2)CC1` (stereo partly drawn) [Compound 21], in the data set on MDR1, the efflux ratio at 2 h, 3 μM stood at 35 and the Papp A→B at 2 h, 3 μM was found to be 0.69 ×10⁻⁶ cm/s. Further, the hepatocyte CLint at 1 μM in data set [1] was 101 µL/min/1e6 cells. The “Extraction Ratio (ER)” value in the data set with human hepatocytes is listed as 0.94.
As to `CS(=O)(=O)N[C@H]1CCN(c2cccc(F)n2)CC1COC1CCC(c2ccccc2)CC1` (stereo partly drawn) [Compound 23], in the data set with MDR1, the efflux ratio at 2 h, 3 μM is greater than 5.4 and the Papp A→B at 2 h, 3 μM is less than 2 ×10⁻⁶ cm/s. Also, the hepatocyte CLint at 1 μM in data set [1] stood at 25 µL/min/1e6 cells. The “Extraction Ratio (ER)” value in the data set with human hepatocytes is 0.79.
Regarding `CS(=O)(=O)N[C@H]1CCN(c2ccccn2)CC1COC1CCC(c2cccc(O)c2)CC1` (stereo partly drawn) [Compound 31], in the data set with MDR1, the efflux ratio at 2 h, 3 μM turned out to be 18 and the Papp A→B at 2 h, 3 μM amounted to 1 ×10⁻⁶ cm/s. The hepatocyte CLint at 1 μM in data set [1] was 81 µL/min/1e6 cells. In the data set with human hepatocytes, the “Extraction Ratio (ER)” value is 0.92.
For `CS(=O)(=O)N[C@H]1CCN(c2ccccn2)CC1COC1CCC(c2cnccn2)CC1` (stereo partly drawn) [Compound 9], in that order: 25, 0.97 ×10⁻⁶ cm/s, 45 µL/min/1e6 cells and 0.87.
For `CS(=O)(=O)N[C@H]1CCN(c2ccccn2)CC1COC1CCC(c2ccc(O)cc2)CC1` (stereo partly drawn) [Compound 32], in that order: 34, 0.41 ×10⁻⁶ cm/s, 110 µL/min/1e6 cells and 0.94.
For `Cc1cc(C)cc(C2CCC(OCC3CN(c4ccccn4)CC[C@@H]3NS(C)(=O)=O)CC2)c1` (stereo partly drawn) [Compound 18], in the data set with MDR1, the efflux ratio at 2 h, 3 μM was greater than 2.6 and the Papp A→B at 2 h, 3 μM is less than 1.8 ×10⁻⁶ cm/s. Further, the hepatocyte CLint at 1 μM in data set [1] turned out to be 36 µL/min/1e6 cells. The “Extraction Ratio (ER)” value in the data set on human hepatocytes was 0.84.
